In US4720483A, “Oligopeptides and intermediates and processes for their manufacture” (Ciba-Geigy Corporation, priority 1985, dated 1988):
Counter-ions that a name gives are not always drawn.

Experiment: vasodilatory and cardiovascular actions in femtomol dosages, with and without blockers of the sympathetic nervous system
Assay type: in vivo
Settings: blocker of the sympathetic nervous system
From the text: In femtomol dosages, the peptide-amides according to the invention have a vasodilatory action and result in a reduction of the blood pressure and an increase in the heart rate and in the contractility of the myocardium. The actions are not affected by blockers of the sympathetic nervous system, for example metoprolol [1-isopropylamino-3-(4-{2-methoxyethyl}phenoxy)-propan-2-ol] and Trandate® (labetalol hydrochloride), whereas the action of noradrenalin and of adrenalin in serum is suppressed by those substances.

| SMILES | action of noradrenalin and of adrenalin in serum |
| --- | --- |
| COCCc1ccc(OCC(O)CNC(C)C)cc1 (centres unmarked) [metoprolol, 1-isopropylamino-3-(4-{2-methoxyethyl}phenoxy)-propan-2-ol] | suppressed |
| CC(CCc1ccccc1)NCC(O)c1ccc(O)c(C(N)=O)c1 (centres unmarked) [Trandate, labetalol hydrochloride] | suppressed |
